Key:
Format in all cases: cell-based
[1] = system: Streptococcus dysgalactiae T46C14; assay: First screening, agar dilution MIC
Description: (§1) Clinical bacterial isolates from human samples collected in Lille (France) and some collection strains were used. The first screening step on pathogenic bacteria was carried out with crude hydro-alcoholic extracts of different hop parts (Table 1). The second screening was performed using sub-extracts of cones on Gram-positive bacteria, including methicillin-sensitive Staphylococcus aureus (MSSA) and methicillin-resistant Staphylococcus aureus […] (Table 2). These tests were carried out on Petri dishes, Mueller-Hinton Agar (MHA) (Oxoid, UK) was mixed with the plant extract solution in MeOH at 5% (solvent control: 5% MeOH). Final extract concentrations in Petri dishes ranged from 1250 to 4.9 µg/mL. A multi-headed inoculator allowed spotting bacterial strains at 10^5 CFU/mL in cysteinated Ringer (CR) solution (Merck®, France). Minimal Inhibitory Concentrations (MICs) were visually determined after 24 h of incubation at 37 °C.

[2] = system: Pseudomonas aeruginosa 8131; assay: First screening, agar dilution MIC
Description: as §1

[3] = system: Staphylococcus aureus 8147; assay: First screening, agar dilution MIC
Description: as §1

[4] = system: Acinetobacter baumannii 9010; assay: First screening, agar dilution MIC
Description: as §1

[5] = system: Serratia marcescens 11056; assay: First screening, agar dilution MIC
Description: as §1

[6] = system: Streptococcus agalactiae T53C2; assay: First screening, agar dilution MIC
Description: as §1

[7] = system: Enterobacter cloacae 11050; assay: First screening, agar dilution MIC
Description: as §1

[8] = system: Acinetobacter baumannii 9011; assay: First screening, agar dilution MIC
Description: as §1

[9] = system: Pseudomonas aeruginosa ATCC 27583; assay: First screening, agar dilution MIC
Description: as §1

Corynebacterium T25-17 [10] = assay: First screening, agar dilution MIC
Description: as §1

[11] = system: Enterococcus faecalis C159-6; assay: First screening, agar dilution MIC
Description: as §1

[12] = system: Klebsiella pneumoniae 11017; assay: First screening, agar dilution MIC
Description: as §1

[13] = system: Staphylococcus epidermidis 10282; assay: First screening, agar dilution MIC
Description: as §1

[14] = system: Staphylococcus epidermidis 5001; assay: First screening, agar dilution MIC
Description: as §1

[15] = system: Staphylococcus lugdunensis T26A3; assay: First screening, agar dilution MIC
Description: as §1

[16] = system: Streptococcus agalactiae T25-7; assay: First screening, agar dilution MIC
Description: as §1

[17] = system: Escherichia coli ATCC 25922; assay: First screening, agar dilution MIC
Description: as §1

[18] = system: Staphylococcus warneri T12A12; assay: First screening, agar dilution MIC
Description: as §1

Escherichia coli 8138 = assay: First screening, agar dilution MIC
Description: as §1

[19] = system: Citrobacter freundii 11042; assay: First screening, agar dilution MIC
Description: as §1

[20] = system: Mycobacterium smegmatis 5003; assay: First screening, agar dilution MIC
Description: as §1

[21] = system: Staphylococcus aureus 8146; assay: First screening, agar dilution MIC
Description: as §1

[22] = system: Providencia stuartii 11038; assay: First screening, agar dilution MIC
Description: as §1

[23] = system: Serratia marcescens 11057; assay: First screening, agar dilution MIC
Description: as §1

[24] = system: Enterobacter cloacae 11051; assay: First screening, agar dilution MIC
Description: as §1

[25] = system: Klebsiella pneumoniae 11016; assay: First screening, agar dilution MIC
Description: as §1

Escherichia coli 8157 = assay: First screening, agar dilution MIC
Description: as §1

[26] = system: Stenotrophomonas maltophilia; assay: First screening, agar dilution MIC
Description: as §1

[27] = system: Citrobacter freundii 11041; assay: First screening, agar dilution MIC
Description: as §1

Salmonella sp. 11033 = assay: First screening, agar dilution MIC
Description: as §1

Enterococcus sp. 8153 = assay: First screening, agar dilution MIC
Description: as §1

[28] = system: Enterobacter cloacae 11053; assay: First screening, agar dilution MIC
Description: as §1

Proteus mirabilis 11060 = assay: First screening, agar dilution MIC
Description: as §1

[29] = system: Enterococcus faecalis T34-2; assay: Second screening, agar dilution MIC
Description: as §1

[30] = system: Staphylococcus aureus T36B1; assay: Second screening, agar dilution MIC
Description: as §1

[31] = system: Staphylococcus aureus T26A4; assay: Second screening, agar dilution MIC
Description: as §1

[32] = system: Staphylococcus aureus 8147; assay: Second screening, agar dilution MIC; conditions: Table 2
Description: as §1

[33] = system: Enterococcus faecalis T26-B7; assay: Second screening, agar dilution MIC
Description: as §1

[34] = system: Streptococcus agalactiae 13225; assay: Second screening, agar dilution MIC
Description: as §1

[35] = system: Staphylococcus aureus T47A12; assay: Second screening, agar dilution MIC
Description: as §1

Corynebacterium T25-17 [36] = assay: Second screening, agar dilution MIC; conditions: Table 2
Description: as §1

[37] = system: Enterococcus faecalis T37A4; assay: Second screening, agar dilution MIC
Description: as §1

[38] = system: Staphylococcus pettenkoferi T3.3; assay: Second screening, agar dilution MIC
Description: as §1

[39] = system: Streptococcus agalactiae 13226; assay: Second screening, agar dilution MIC
Description: as §1

[40] = system: Staphylococcus aureus T25.9; assay: Second screening, agar dilution MIC
Description: as §1

[41] = system: Staphylococcus epidermidis 5001; assay: Second screening, agar dilution MIC; conditions: Table 2
Description: as §1

[42] = system: Staphylococcus lugdunensis T26A3; assay: Second screening, agar dilution MIC; conditions: Table 2
Description: as §1

[43] = system: Staphylococcus aureus T1.1; assay: Second screening, agar dilution MIC
Description: as §1

[44] = system: Staphylococcus aureus T6.7; assay: Second screening, agar dilution MIC
Description: as §1

[45] = system: Staphylococcus aureus T25.3; assay: Second screening, agar dilution MIC
Description: as §1

[46] = system: Staphylococcus aureus T28.1; assay: Second screening, agar dilution MIC
Description: as §1

[47] = system: Streptococcus agalactiae T25.7; assay: Second screening, agar dilution MIC
Description: as §1

[48] = system: Streptococcus agalactiae T38.2; assay: Second screening, agar dilution MIC
Description: as §1

[49] = system: Staphylococcus saprophyticus 08237; assay: Second screening, agar dilution MIC
Description: as §1

[50] = system: Staphylococcus aureus CIP 224; assay: Second screening, agar dilution MIC
Description: as §1

[51] = system: Enterococcus faecalis T39-C11; assay: Second screening, agar dilution MIC
Description: as §1

[52] = system: Staphylococcus aureus T25.10; assay: Second screening, agar dilution MIC
Description: as §1

[53] = system: Streptococcus agalactiae T40A2; assay: Second screening, agar dilution MIC
Description: as §1

SMILES: CN[C@H](CC(C)C)C(=O)N[C@H]1C(=O)N[C@@H](CC(N)=O)C(=O)N[C@H]2C(=O)N[C@H]3C(=O)N[C@H](C(=O)N[C@H](C(=O)O)c4cc(O)cc(O)c4-c4cc3ccc4O)[C@H](O)c3ccc(c(Cl)c3)Oc3cc2cc(c3O[C@@H]2O[C@H](CO)[C@@H](O)[C@H](O)[C@H]2O[C@H]2C[C@](C)(N)[C@H](O)[C@H](C)O2)Oc2ccc(cc2Cl)[C@H]1O [VAN, Vancomycin]
- Susceptibility to VAN [1]: S (Vancomycin (VAN) S ≤ 4)
- Susceptibility to VAN [2]: R (R > 16)
- Susceptibility to VAN [3]: S (Vancomycin (VAN) S ≤ 4)
- Susceptibility to VAN [4]: R (R > 16)
- Susceptibility to VAN [5]: R (R > 16)
- Susceptibility to VAN [6]: S (Vancomycin (VAN) S ≤ 4)
- Susceptibility to VAN [7]: R (R > 16)
- Susceptibility to VAN [8]: R (R > 16)
- Susceptibility to VAN [9]: R (R > 16)
- Susceptibility to VAN (Corynebacterium T25-17 [10]): S (Vancomycin (VAN) S ≤ 4)
- Susceptibility to VAN [11]: S (Vancomycin (VAN) S ≤ 4)
- Susceptibility to VAN [12]: R (R > 16)
- Susceptibility to VAN [13]: S (Vancomycin (VAN) S ≤ 4)
- Susceptibility to VAN [14]: S (Vancomycin (VAN) S ≤ 4)
- Susceptibility to VAN [15]: S (Vancomycin (VAN) S ≤ 4)
- Susceptibility to VAN [16]: S (Vancomycin (VAN) S ≤ 4)
- Susceptibility to VAN [17]: R (R > 16)
- Susceptibility to VAN [18]: R (R > 16)
- Susceptibility to VAN (Escherichia coli 8138): R (R > 16)
- Susceptibility to VAN [19]: R (R > 16)
- Susceptibility to VAN [20]: S (Vancomycin (VAN) S ≤ 4)
- Susceptibility to VAN [21]: S (Vancomycin (VAN) S ≤ 4)
- Susceptibility to VAN [22]: R (R > 16)
- Susceptibility to VAN [23]: R (R > 16)
- Susceptibility to VAN [24]: R (R > 16)
- Susceptibility to VAN [25]: R (R > 16)
- Susceptibility to VAN (Escherichia coli 8157): R (R > 16)
- Susceptibility to VAN [26]: R (R > 16)
- Susceptibility to VAN [27]: R (R > 16)
- Susceptibility to VAN (Salmonella sp. 11033): R (R > 16)
- Susceptibility to VAN (Enterococcus sp. 8153): S (Vancomycin (VAN) S ≤ 4)
- Susceptibility to VAN [28]: R (R > 16)
- Susceptibility to VAN (Proteus mirabilis 11060): R (R > 16)
- Susceptibility to VAN [29]: S (Vancomycin (VAN) S ≤ 4)
- Susceptibility to VAN [30]: S (Vancomycin (VAN) S ≤ 4)
- Susceptibility to VAN [31]: S (Vancomycin (VAN) S ≤ 4)
- Susceptibility to VAN [32]: S (Vancomycin (VAN) S ≤ 4)
- Susceptibility to VAN [33]: S (Vancomycin (VAN) S ≤ 4)
- Susceptibility to VAN [34]: S (Vancomycin (VAN) S ≤ 4)
- Susceptibility to VAN [35]: S (Vancomycin (VAN) S ≤ 4)
- Susceptibility to VAN (Corynebacterium T25-17 [36]): S (Vancomycin (VAN) S ≤ 4)
- Susceptibility to VAN [37]: S (Vancomycin (VAN) S ≤ 4)
- Susceptibility to VAN [38]: S (Vancomycin (VAN) S ≤ 4)
- Susceptibility to VAN [39]: S (Vancomycin (VAN) S ≤ 4)
- Susceptibility to VAN [40]: S (Vancomycin (VAN) S ≤ 4)
- Susceptibility to VAN [41]: S (Vancomycin (VAN) S ≤ 4)
- Susceptibility to VAN [42]: S (Vancomycin (VAN) S ≤ 4)
- Susceptibility to VAN [43]: S (Vancomycin (VAN) S ≤ 4)
- Susceptibility to VAN [44]: S (Vancomycin (VAN) S ≤ 4)
- Susceptibility to VAN [45]: S (Vancomycin (VAN) S ≤ 4)
- Susceptibility to VAN [46]: S (Vancomycin (VAN) S ≤ 4)
- Susceptibility to VAN [47]: S (Vancomycin (VAN) S ≤ 4)
- Susceptibility to VAN [48]: S (Vancomycin (VAN) S ≤ 4)
- Susceptibility to VAN [49]: S (Vancomycin (VAN) S ≤ 4)
- Susceptibility to VAN [50]: S (Vancomycin (VAN) S ≤ 4)
- Susceptibility to VAN [51]: S (Vancomycin (VAN) S ≤ 4)
- Susceptibility to VAN [52]: S (Vancomycin (VAN) S ≤ 4)
- Susceptibility to VAN [53]: S (Vancomycin (VAN) S ≤ 4)
